Test results as given in patent US11548868B2, “Heterocyclic compounds, compositions comprising heterocyclic compound, and methods of use thereof” (JS INNOPHARM (SHANGHAI) LTD, priority 2017, dated 2023).
Structures can show the parent of a compound that is named as a salt.

Experiments:
[1] = target: T1, TDO2 in A172 cancer cells (Homo sapiens, UniProt P48775); assay: TDO2 Cellular Assay (kynurenine production in A172 cancer cells); format: cell-based; settings: L-Trp 1 mM, 24 hours incubation, kynurenine at 490 nm
T1 construct: endogenous in cells; host or cells: A172 cancer cells
T1 sequence (P48775 whole entry): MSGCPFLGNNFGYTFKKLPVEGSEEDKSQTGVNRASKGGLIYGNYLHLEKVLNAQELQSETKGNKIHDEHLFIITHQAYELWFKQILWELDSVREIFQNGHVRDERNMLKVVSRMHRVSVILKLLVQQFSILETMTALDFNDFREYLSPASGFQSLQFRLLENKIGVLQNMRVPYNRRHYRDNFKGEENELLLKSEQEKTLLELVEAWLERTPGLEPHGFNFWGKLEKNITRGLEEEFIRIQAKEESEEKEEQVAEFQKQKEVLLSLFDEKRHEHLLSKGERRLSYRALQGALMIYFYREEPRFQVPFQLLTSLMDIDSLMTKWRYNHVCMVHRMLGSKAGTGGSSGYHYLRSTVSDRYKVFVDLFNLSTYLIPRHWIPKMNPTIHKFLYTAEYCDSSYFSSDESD
Description: A172 cancer cells (3×10^4 per well) in 85 μL DMEM medium containing 10% FBS were seeded in a 96-well plate and incubated at 95% humidity and 5% CO2 at 37° C. for overnight. On the next day, L-Trp solution (10 μL, 1 mM final concentration) and serial dilutions of the test compounds and DMEM medium resulting in a total final volume of 100 μL each well. The test compounds were dissolved in DMSO and successively diluted with pH7.5 butter (with final DMSO concentration of 0.25%) resulting in final concentrations of the test compounds ranging from 0 to 25 μM (0, 2.5, 7.5, 25, 75, 250, 750, 2500, 7500, & 25000 nM). After 24 hours of incubation, 70 uL of the supernatant per well was transferred to a new 96 well plate. 8 μL of trichloroacetic acid (6.1 N) was mixed into each well and incubated at 50° C. for 30 min to hydrolyze N-formylkynurenine to kynurenine. The reaction mixture was then centrifuged for 10 min at 2500 RPM to remove sediments. 50 μL of the supernatant per well was transferred to another 96 well plate and mixed with 50 μL of 2% (w/v) p-dimethylaminobenzaldehyde in acetic acid. The yellow color derived from kynurenine was measured at 490 nm using a microplate reader. Percent inhibition of the test compounds was determined by measuring the decrease in kynurenine as compared to the control of DMSO vehicle, which was calculated by formula of (WC−WT)/WC, where WC is the mean absorbance of the control well minus blank well; WT is the mean absorbance of the test well minus the blank well. Data was analyzed by GraphPad Prism 5 and the IC50 values were obtained by non-linear regression.
(§1) The IC50 values of for Compounds disclosed are listed in Table 2, A′: ≤0.5 μM; B′: >0.5 μM and ≤1 μM; C′: >1.0 μM and ≤5 uM; and D′: >5 μM.

[2] = target: T2, IDO1 in Hela cancer cells (Homo sapiens, UniProt P14902); assay: IDO1 Cellular Assay (kynurenine production in IFN-γ stimulated Hela cancer cells); format: cell-based; settings: human IFN-γ 50 ng/mL, 48 hours incubation, kynurenine at 490 nm
T2 construct: endogenous in cells; host or cells: Hela cancer cells stimulated with human IFN-γ
T2 sequence (P14902 whole entry): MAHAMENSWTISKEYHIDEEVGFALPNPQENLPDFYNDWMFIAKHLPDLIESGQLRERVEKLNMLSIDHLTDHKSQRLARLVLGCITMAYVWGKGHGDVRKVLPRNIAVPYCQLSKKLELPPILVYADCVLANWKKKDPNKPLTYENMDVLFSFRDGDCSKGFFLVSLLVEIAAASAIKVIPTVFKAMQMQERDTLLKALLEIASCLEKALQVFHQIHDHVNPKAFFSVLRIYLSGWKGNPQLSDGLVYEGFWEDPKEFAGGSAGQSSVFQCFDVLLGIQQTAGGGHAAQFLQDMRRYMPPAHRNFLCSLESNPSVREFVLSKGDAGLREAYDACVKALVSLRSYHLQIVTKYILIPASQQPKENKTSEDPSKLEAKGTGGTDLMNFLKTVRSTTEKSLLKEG
Description: Hela cancer cells (5×10^3 per well) with 85 μL DMEM medium containing 10% FBS were seeded in a 96-well plate and incubated at 95% humidity and 5% CO2 at 37° C. for 24 hours. human IFN-γ (10 μL, 50 ng/mL final concentration) and 5 μL serial dilutions of the test compounds were added into each well. The test compounds were dissolved in DMSO, and successively diluted with pH7.5 buffer (with final DMSO concentration of 0.25%) resulting in final concentrations of the test compounds ranging from 0 to 25 μM (0, 2.5, 7.5, 25, 75, 250, 750, 2500, 7500, & 25000 nM). After 48 hours of incubation, 70 uL of the supernatant per well was transferred to a new 96 well plate. Trichloroacetic acid (6.1 N, 8 μL) was mixed into each well and incubated at 50° C. for 30 min to hydrolyze N-formylkynurenine produced by IDO to kynurenine. The reaction mixture was then centrifuged for 10 min at 2500 RPM to remove sediments. 50 μL of the supernatant per well was transferred to another 96 well plate and mixed with 50 uL of 2% (w/v) p-dimethylaminobenzaldehyde in acetic acid. The yellow color derived from kynurenine was measured at 490 nm using a microplate reader. Percent inhibition of the test compounds was determined by measuring the decrease in kynurenine as compared to the control of DMSO vehicle, which was calculated by formula of (WC-WT)/WC, where WC is the mean absorbance of the control well minus blank well; WT is the mean absorbance of the test well minus the blank well. Data was analyzed by GraphPad Prism 5 and the IC50 values were obtained by non-linear regression.
as §1

Structure (SMILES)	IC50 [1] [nM]	IC50 [2] [nM]
O[C@@]1(c2cc(Cl)cc3cn[nH]c23)C[C@H]2CN(c3ccncc3)C[C@H]2C1 [Example 117, (3aR,5r,6aS)-5-(5-chloro-1H-indazol-7-yl)-2-(pyridin-4-yl)octahydrocyclopenta[c]pyrrol-5-ol]	> 5000	> 5000
O=C(N[C@H]1[C@@H]2C[C@@](O)(c3cc(Cl)cc4[nH]ncc34)C[C@@H]21)c1cnoc1 [Example 158, N-((1R,3r,5S,6r)-3-(6-chloro-1H-indazol-4-yl)-3-hydroxybicyclo[3.1.0]hexan-6-yl)isoxazole-4-carboxamide]	1000 to 5000	> 5000
O=C(N[C@H]1[C@@H]2C[C@@](O)(c3cc(Cl)cc4[nH]ncc34)C[C@@H]21)c1cccnc1 [Example 148, N-((1R,3r,5S,6r)-3-(6-chloro-1H-indazol-4-yl)-3-hydroxybicyclo[3.1.0]hexan-6-yl)nicotinamide]	≤ 500	≤ 500
O=C(N[C@H]1[C@@H]2C[C@@](O)(c3cc(Cl)cc4[nH]ncc34)C[C@@H]21)c1ccnc2ccccc12 [Example 169, N-((1R,3r,5S,6r)-3-(6-chloro-1H-indazol-4-yl)-3-hydroxybicyclo[3.1.0]hexan-6-yl)quinoline-4-carboxamide]	≤ 500	1000 to 5000
OC1(c2cc(Cl)cc3[nH]ncc23)CC1 [Example 11, 1-(6-chloro-1H-indazol-4-yl)cyclopropanol]	≤ 500	> 5000
O=C(N[C@H]1[C@@H]2C[C@@](O)(c3cc(Cl)cc4[nH]ncc34)C[C@@H]21)c1cccc(OC(F)(F)F)c1 [Example 145, N-((1R,3r,5S,6r)-3-(6-chloro-1H-indazol-4-yl)-3-hydroxybicyclo[3.1.0]hexan-6-yl)-3-(trifluoromethoxy)benzamide]	≤ 500	≤ 500
CNS(=O)(=O)N[C@H]1[C@@H]2C[C@@](O)(c3cc(Cl)cc4[nH]ncc34)C[C@@H]21 [Example 9, N′-methyl-N-((1R,3r,5S,6r)-3-(6-chloro-1H-indazol-4-yl)-3-hydroxybicyclo[3.1.0]hexan-6-yl)sulfuric diamide]	≤ 500	≤ 500
O=C(C1CCOC1)N1C[C@@H]2C[C@@](O)(c3cc(Cl)cc4[nH]ncc34)C[C@@H]2C1 (stereo partly drawn) [Example 68, ((3aR,5r,6aS)-5-(6-chloro-1H-indazol-4-yl)-5-hydroxyhexahydrocyclopenta[c]pyrrol-2(1H)-yl)(tetrahydrofuran-3-yl)methanone]	≤ 500	–
O=C(N[C@H]1[C@@H]2C[C@@](O)(c3cc(Cl)cc4[nH]ncc34)C[C@@H]21)C1CCCCC1 [Example 85, N-((1R,3r,5S,6r)-3-(6-chloro-1H-indazol-4-yl)-3-hydroxybicyclo[3.1.0]hexan-6-yl)cyclohexanecarboxamide]	≤ 500	–
CS(=O)(=O)N1C[C@@H]2CC(c3cc(Cl)cc4[nH]ncc34)=C[C@@H]2C1 (racemic) [Example 5, Racemic-6-chloro-4-((3aR,6aS)-2-(methylsulfonyl)-1,2,3,3a,4,6a-hexahydrocyclopenta[c]pyrrol-5-yl)-1H-indazole]	≤ 500	–
NCC(=O)N[C@H]1[C@@H]2C[C@@](O)(c3cc(Cl)cc4[nH]ncc34)C[C@@H]21 [Example 103, 2-amino-N-((1R,3r,5S,6r)-3-(6-chloro-1H-indazol-4-yl)-3-hydroxybicyclo[3.1.0]hexan-6-yl)acetamide hydrochloride]	1000 to 5000	–
O=S(=O)(C1CC1)N1C[C@@H]2C[C@@](O)(c3cc(Cl)cc4[nH]ncc34)C[C@@H]2C1 [Example 37, (3aR,5r,6aS)-5-(6-chloro-1H-indazol-4-yl)-2-(cyclopropylsulfonyl)octahydrocyclopenta[c]pyrrol-5-ol]	≤ 500	–
O=C(N[C@H]1[C@@H]2C[C@@](O)(c3cc(Cl)cc4[nH]ncc34)C[C@@H]21)C1CCC1 [Example 84, N-((1R,3r,5S,6r)-3-(6-chloro-1H-indazol-4-yl)-3-hydroxybicyclo[3.1.0]hexan-6-yl)cyclobutanecarboxamide]	≤ 500	–
COC(=O)N1C[C@@H]2C[C@@](O)(c3cc(Cl)cc4[nH]ncc34)C[C@@H]2C1 [Example 67, (3aR,5r,6aS)-methyl 5-(6-chloro-1H-indazol-4-yl)-5-hydroxyhexahydrocyclopenta[c]pyrrole-2(1H)-carboxylate]	≤ 500	–
O=C(C1CCCC1)N1C[C@@H]2C[C@@](O)(c3cc(Cl)cc4[nH]ncc34)C[C@@H]2C1 [Example 59, ((3aR,5r,6aS)-5-(6-chloro-1H-indazol-4-yl)-5-hydroxyhexahydrocyclopenta[c]pyrrol-2(1H)-yl)(cyclopentyl)methanone]	≤ 500	–
O=C([C@H]1CC[C@H](O)CC1)N1C[C@@H]2C[C@@](O)(c3cc(Cl)cc4[nH]ncc34)C[C@@H]2C1 [Example 66, ((3aR,5R,6aS)-5-(6-chloro-1H-indazol-4-yl)-5-hydroxyhexahydrocyclopenta[c]pyrrol-2(1H)-yl)((1r,4R)-4-hydroxycyclohexyl)methanone]	≤ 500	–
O=S(=O)(N[C@H]1[C@@H]2C[C@@](O)(c3cc(Cl)cc4[nH]ncc34)C[C@@H]21)C1CCCCC1 [Example 78, N-((1R,3r,5S,6r)-3-(6-chloro-1H-indazol-4-yl)-3-hydroxybicyclo[3.1.0]hexan-6-yl)cyclohexanesulfonamide]	≤ 500	–
O[C@@]1(c2cc(Cl)cc3[nH]ncc23)C[C@H]2CCC[C@H]2C1 [Example 30, (2r,3aR,6aS)-2-(6-chloro-1H-indazol-4-yl)octahydropentalen-2-ol]	≤ 500	–
CCS(=O)(=O)N[C@H]1[C@@H]2C[C@@](O)(c3cc(Cl)cc4[nH]ncc34)C[C@@H]21 [Example 71, N-((1R,3r,5S,6r)-3-(6-chloro-1H-indazol-4-yl)-3-hydroxybicyclo[3.1.0]hexan-6-yl)ethanesulfonamide]	≤ 500	–
CCC(=O)N1C[C@@H]2C[C@@](O)(c3cc(Cl)cc4[nH]ncc34)C[C@@H]2C1 [Example 70, 1-((3aR,5r,6aS)-5-(6-chloro-1H-indazol-4-yl)-5-hydroxyhexahydrocyclopenta[c]pyrrol-2(1H)-yl)propan-1-one]	≤ 500	–
CCC(=O)N[C@H]1[C@@H]2C[C@@](O)(c3cc(Cl)cc4[nH]ncc34)C[C@@H]21 [Example 82, N-((1R,3r,5S,6r)-3-(6-chloro-1H-indazol-4-yl)-3-hydroxybicyclo[3.1.0]hexan-6-yl)propionamide]	≤ 500	–
COC(=O)N[C@H]1[C@@H]2C[C@@](O)(c3cc(Cl)cc4[nH]ncc34)C[C@@H]21 [Example 80, methyl ((1R,3r,5S,6r)-3-(6-chloro-1H-indazol-4-yl)-3-hydroxybicyclo[3.1.0]hexan-6-yl)carbamate]	≤ 500	–
O=C(C1CCOCC1)N1C[C@@H]2C[C@@](O)(c3cc(Cl)cc4[nH]ncc34)C[C@@H]2C1 [Example 88, ((3aR,5r,6aS)-5-(6-chloro-1H-indazol-4-yl)-5-hydroxyhexahydrocyclopenta[c]pyrrol-2(1H)-yl)(tetrahydro-2H-pyran-4-yl)methanone]	≤ 500	–
CC(C)(C)OC(=O)N1C[C@@H]2C[C@@](O)(c3cc(Cl)cc4[nH]ncc34)C[C@@H]2C1 [Example 54, (3aR,5r,6aS)-tert-butyl 5-(6-chloro-1H-indazol-4-yl)-5-hydroxyhexahydrocyclopenta[c]pyrrole-2(1H)-carboxylate]	≤ 500	–
